We go through 20 compounds from ChEMBL document CHEMBL1156945, “Discovery of a novel selective PPARgamma modulator from (-)-Cercosporamide derivatives” (Bioorg Med Chem Lett, 2010).

pEC50, pIC50, pKi: −log10 of the molar value. The source made the active and inactive calls. No cut-off for these calls is given here.

The target of data set [1] is T1, Peroxisome proliferator-activated receptor gamma (Homo sapiens, UniProt P37231).
T1 sequence (P37231 whole entry): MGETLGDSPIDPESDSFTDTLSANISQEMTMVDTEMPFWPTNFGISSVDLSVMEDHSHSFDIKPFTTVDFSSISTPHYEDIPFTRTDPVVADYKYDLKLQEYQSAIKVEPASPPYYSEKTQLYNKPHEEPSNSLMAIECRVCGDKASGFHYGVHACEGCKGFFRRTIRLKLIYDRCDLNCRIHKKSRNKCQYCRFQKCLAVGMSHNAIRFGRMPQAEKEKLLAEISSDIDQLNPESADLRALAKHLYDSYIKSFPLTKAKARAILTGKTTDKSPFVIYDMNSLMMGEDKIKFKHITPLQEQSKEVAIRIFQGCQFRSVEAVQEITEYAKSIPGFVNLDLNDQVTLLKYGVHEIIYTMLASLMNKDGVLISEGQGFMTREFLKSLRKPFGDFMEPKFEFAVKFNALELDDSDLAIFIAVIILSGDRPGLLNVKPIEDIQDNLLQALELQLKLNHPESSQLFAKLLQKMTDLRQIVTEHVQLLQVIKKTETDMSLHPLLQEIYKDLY
Description: (§1) Agonist activity at PPARgamma assessed as transcriptional activation

Data set [2] has as its target T1, Peroxisome proliferator-activated receptor gamma. The experiment in a line: Binding affinity to PPARgamma.
The target in data set [3] is T2, Peroxisome proliferator-activated receptor alpha (Homo sapiens) (UniProt Q07869).
T2 sequence (whole entry): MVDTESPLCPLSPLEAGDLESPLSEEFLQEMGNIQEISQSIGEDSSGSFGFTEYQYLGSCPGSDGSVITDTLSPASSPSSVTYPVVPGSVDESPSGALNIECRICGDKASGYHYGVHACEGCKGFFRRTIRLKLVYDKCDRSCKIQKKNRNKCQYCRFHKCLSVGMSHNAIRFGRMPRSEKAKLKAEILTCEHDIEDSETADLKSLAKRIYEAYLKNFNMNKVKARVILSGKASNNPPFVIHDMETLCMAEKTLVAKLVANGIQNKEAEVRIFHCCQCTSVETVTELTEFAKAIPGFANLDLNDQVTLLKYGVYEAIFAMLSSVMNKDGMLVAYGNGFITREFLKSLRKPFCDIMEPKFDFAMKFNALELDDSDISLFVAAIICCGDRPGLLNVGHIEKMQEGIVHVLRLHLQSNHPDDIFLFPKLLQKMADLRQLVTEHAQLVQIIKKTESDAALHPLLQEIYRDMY
The experiment in a line: Agonist activity at PPARalpha by transactivation assay. In kind it is functional.

In data set [4] the test system is Mus musculus. The data set can be described thus: Toxicity in db/db mouse assessed as heart weight administered at 0.1% in diet (Rvb=102+/-4.8 mg). The data set is classed as organism-based. The following applies: in vivo, po.
The subject of data set [5] is Mus musculus. The data set can be described thus: Toxicity in db/db mouse assessed as heart weight administered at 0.01% in diet (Rvb=102+/-4.8 mg). The data set is classed as organism-based. The note with it: in vivo, po.
For data set [6], the target named is T3, Peroxisome proliferator-activated receptor delta (Homo sapiens) (UniProt Q03181).
T3 sequence (whole entry): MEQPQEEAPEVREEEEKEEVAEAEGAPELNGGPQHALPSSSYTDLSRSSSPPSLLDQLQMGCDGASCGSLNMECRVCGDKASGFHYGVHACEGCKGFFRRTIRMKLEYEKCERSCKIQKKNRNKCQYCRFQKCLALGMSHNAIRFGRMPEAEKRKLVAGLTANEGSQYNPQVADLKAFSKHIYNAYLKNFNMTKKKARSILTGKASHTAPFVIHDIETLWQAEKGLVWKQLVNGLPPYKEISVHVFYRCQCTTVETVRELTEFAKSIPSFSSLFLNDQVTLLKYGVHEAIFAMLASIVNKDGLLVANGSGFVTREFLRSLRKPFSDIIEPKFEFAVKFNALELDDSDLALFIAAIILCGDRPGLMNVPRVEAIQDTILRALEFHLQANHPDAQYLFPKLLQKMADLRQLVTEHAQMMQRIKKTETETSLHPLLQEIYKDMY
The experiment in a line: Agonist activity at PPARdelta by transactivation assay. The data set is classed as functional.

For data set [7], the species on record is Mus musculus. The data set can be described thus: Antihyperglycemic activity in KK/Ta mouse assessed as reduction in body weight at 0.01% in diet after 7 days relative to control. In kind it is functional. The arrangement: scale not given: the % may be the effect or the level left.
Data set [8] is filed under the species Mus musculus. The experiment in a line: Antihyperglycemic activity in KK/Ta mouse assessed as reduction in plasma glucose level at 0.01% in diet relative to control. Also on record: scale not given: the % may be the effect or the level left. The data set is classed as functional.
The species entered for data set [9] is Mus musculus. The data set can be described thus: Antihyperglycemic activity in KK/Ta mouse assessed as reduction in food intake at 0.01% in diet after 7 days relative to control. The data set is classed as functional. The arrangement: scale not given: the % may be the effect or the level left.
Data set [10] deals with T1, Peroxisome proliferator-activated receptor gamma. The experiment in a line: Inhibition of PPARgamma assessed as transcriptional activity.
Data set [11] shares this target. The source holds these as a separate data set.
Description: as §1

Regarding `COC1Oc2cc(O)c3c(c2C(=O)N1C(=O)NCc1cccc([N+](=O)[O-])c1)OC1=CC(O)=C(C(C)=O)C(=O)[C@]13C` (stereo partly drawn), in [1], the pEC50 is 5.62. Compound `COC1Oc2cc(O)c3c(c2C(=O)N1C(=O)NCc1cccc2ccccc12)OC1=CC(O)=C(C(C)=O)C(=O)[C@]13C` (stereo partly drawn) had a pEC50 in data set [1] of 6.74. The compound also showed a negative-log Ki (pKi) in data set [2] of 7.09. Besides, the result in data set [3] and in data set [6] was inactive. The Activity with Mus musculus [4] was 103.8 mg; with Mus musculus [5], 102.8 mg. On to `COC1Oc2cc(O)c3c(c2C(=O)N1C(=O)NCc1ccccc1Cl)OC1=CC(O)=C(C(C)=O)C(=O)[C@]13C` (stereo partly drawn), for which, in [1], the pEC50 is 6.55. `COC1Oc2cc(O)c3c(c2C(=O)N1C(=O)NCc1ccccc1[N+](=O)[O-])OC1=CC(O)=C(C(C)=O)C(=O)[C@]13C` (stereo partly drawn) had a pEC50 in data set [1] of 5.80. Regarding `CC(=O)C1=C(O)C=C2Oc3c4c(cc(O)c3[C@]2(C)C1=O)OC(C)(C)NC4=O`, the Activity in the data set listed under Mus musculus [7] is given as 102%; in the data set listed under Mus musculus [8] it was 56%; in the data set filed under Mus musculus [9], 78%. Consider `COC1Oc2cc(O)c3c(c2C(=O)N1C(=O)NCc1cc2ccccc2o1)OC1=CC(O)=C(C(C)=O)C(=O)[C@]13C` (stereo partly drawn), for which the pEC50 in [1] is 5.64. The compound `COC1Oc2cc(O)c3c(c2C(=O)N1C(=O)NCc1ccsc1)OC1=CC(O)=C(C(C)=O)C(=O)[C@]13C` (stereo partly drawn) had a pEC50 in data set [1] of 5.36. In the case of `COc1cc(O)c2c(c1C(=O)NCc1ccccc1)OC1=CC(O)=C(C(C)=O)C(=O)[C@]12C`, the pEC50 in [1] is 6.66. The Activity in the data set listed under Mus musculus [7] turned out to be 101%; in the data set listed under Mus musculus [8], 69%; in the data set filed under Mus musculus [9] it was 100%.

In [1], `COC1Oc2cc(O)c3c(c2C(=O)N1C(=O)NCc1ccc([N+](=O)[O-])cc1)OC1=CC(O)=C(C(C)=O)C(=O)[C@]13C` (stereo partly drawn) gave a pEC50 of 5.22. On the same count and under the same terms, to `COc1ccc(CNC(=O)N2C(=O)c3c(cc(O)c4c3OC3=CC(O)=C(C(C)=O)C(=O)[C@]34C)OC2OC)cc1` (stereo partly drawn) belongs 5.77. On to `COC1Oc2cc(O)c3c(c2C(=O)N1C(=O)NCc1cccs1)OC1=CC(O)=C(C(C)=O)C(=O)[C@]13C` (stereo partly drawn), for which the pEC50 in data set [1] was 5.92. In turn, `COC1Oc2cc(O)c3c(c2C(=O)N1C(=O)NCc1ccco1)OC1=CC(O)=C(C(C)=O)C(=O)[C@]13C` (stereo partly drawn) showed a pEC50 in data set [1] of 6.25. Further, the pIC50 in data set [10] is 4.89. Take `COC1Oc2cc(O)c3c(c2C(=O)N1C(=O)NCc1cccc(Cl)c1)OC1=CC(O)=C(C(C)=O)C(=O)[C@]13C` (stereo partly drawn): the negative-log EC50 (pEC50) in [1] is 5.17. Turning to `CC(=O)C1=C(O)C=C2Oc3c4c(cc(O)c3[C@]2(C)C1=O)OC(C)(C)N(Cc1ccccc1)C4=O`, the Activity in the data set listed under Mus musculus [7] was 103%; in the data set listed under Mus musculus [8], 55%; in the data set listed under Mus musculus [9], 74%.

With `COc1cccc(CNC(=O)N2C(=O)c3c(cc(O)c4c3OC3=CC(O)=C(C(C)=O)C(=O)[C@]34C)OC2OC)c1` (stereo partly drawn), the pEC50 in data set [1] was 5.42. On to `COC1Oc2cc(O)c3c(c2C(=O)N1C(=O)NCc1ccccn1)OC1=CC(O)=C(C(C)=O)C(=O)[C@]13C` (stereo partly drawn), for which the EC50 result in [11] is “Not Active”. The compound `COC1Oc2cc(O)c3c(c2C(=O)N1C(=O)NCc1ccc(Cl)cc1)OC1=CC(O)=C(C(C)=O)C(=O)[C@]13C` (stereo partly drawn) showed a pEC50 in data set [1] of 6.11. Compound `COC1Oc2cc(O)c3c(c2C(=O)N1C(=O)NCc1cccnc1)OC1=CC(O)=C(C(C)=O)C(=O)[C@]13C` (stereo partly drawn) had a negative logarithm of the EC50 (pEC50) in data set [1] of 4.96. The compound `COC1Oc2cc(O)c3c(c2C(=O)N1C(=O)NCc1cc2ccccc2s1)OC1=CC(O)=C(C(C)=O)C(=O)[C@]13C` (stereo partly drawn) showed a negative-log EC50 (pEC50) in [1] of 5.42. On the same count and under the same terms, for `COC1Oc2cc(O)c3c(c2C(=O)N1C(=O)NCc1ccoc1)OC1=CC(O)=C(C(C)=O)C(=O)[C@]13C` (stereo partly drawn) the value was 5.49.
